One may read the IC50 as the concentration needed to halve the response being measured. Higher therefore signals lower potency.

Experiment [1] has as its system SNU-449. Briefly: Cytotoxicity against human SNU-449 cells measured after 3 days. Type of experiment: functional, cell-based. The conditions noted are these: SNU-449, 72 h.
A short description of experiment [2]: Cytotoxicity against human OVCA429 cells measured after 3 days. Type of experiment: functional, cell-based. The conditions noted are these: OVCA429, 72 h.
Experiment [3] is described as follows: Cytotoxicity against human COV434 cells measured after 3 days. Type of experiment: functional, cell-based. The conditions noted are these: COV434, 72 h.
Experiment [4] is described as follows: Cytotoxicity against human HCC15 cells after 8 days. The note with it: HCC15, 192 h. Type of experiment: functional, cell-based.
Experiment [5] deals with LN-229. Description: Cytotoxicity against human LN-229 cells measured after 3 days. The note with it: LN-229, 72 h. Type of experiment: functional, cell-based.
A short description of experiment [6]: Cytotoxicity against human HCC2450 cells measured after 3 days. Type of experiment: functional, cell-based. The conditions noted are these: HCC2450, 72 h.
In experiment [7] the test system is DB. Briefly: Cytotoxicity against human DB cells measured after 3 days. Type of experiment: functional, cell-based. The conditions noted are these: 72 h.
Experiment [8] relates to HuCCT-1. Briefly: Cytotoxicity against human HuCCT-1 cells measured after 3 days. Type of experiment: functional, cell-based. The conditions noted are these: HuCCT-1, 72 h.
For experiment [9], the system named is NCI-H1793. Description: Cytotoxicity against human NCI-H1793 cells measured after 8 days. Type of experiment: functional, cell-based. The conditions noted are these: NCI-H1793, 192 h.
In experiment [10] the test system is HCC1395. Briefly: Cytotoxicity against human HCC1395 cells measured after 8 days. The note with it: HCC1395, 192 h. Type of experiment: functional, cell-based.
A short description of experiment [11]: Cytotoxicity against human EB1 cells measured after 3 days. Type of experiment: functional, cell-based. The note with it: EB1, 72 h.
The test system of experiment [12] is U-937. Briefly: Cytotoxicity against human U-937 cells measured after 3 days. Type of experiment: functional, cell-based. The note with it: U-937, 72 h.
A short description of experiment [13]: Cytotoxicity against human OV56 cells measured after 3 days. Type of experiment: functional, cell-based. The conditions noted are these: OV56, 72 h.
Experiment [14] has as its system NOMO-1. Description: Cytotoxicity against human NOMO-1 cells measured after 3 days. Type of experiment: functional, cell-based. The conditions noted are these: NOMO-1, 72 h.
The subject of experiment [15] is CAL-148. Description: Cytotoxicity against human CAL-148 cells measured after 3 days. Type of experiment: functional, cell-based. The conditions noted are these: CAL-148, 72 h.
The test system of experiment [16] is MDA-MB-415. Briefly: Cytotoxicity against human MDA-MB-415 cells measured after 8 days. Type of experiment: functional, cell-based. The conditions noted are these: MDA-MB-415, 192 h.
Experiment [17] in a line: Cytotoxicity against human HuH-1 cells measured after 3 days. Type of experiment: functional, cell-based. The conditions noted are these: HuH-1, 72 h.
Experiment [18] has as its system Hep 3B2. Description: Cytotoxicity against human Hep 3B2.1-7 cells measured after 3 days. Type of experiment: functional, cell-based. The conditions noted are these: Hep3B, 72 h.
In experiment [19] the test system is SR. Briefly: Cytotoxicity against human SR cells measured after 3 days. Type of experiment: functional, cell-based. The note with it: 72 h.
Experiment [20] can be described thus: Cytotoxicity against human KMS-21BM cells measured after 3 days. Type of experiment: functional, cell-based. The note with it: 72 h.
Experiment [21] concerns OPM-2. Briefly: Cytotoxicity against human OPM-2 cells measured after 3 days. Type of experiment: functional, cell-based. The note with it: OPM-2, 72 h.
Experiment [22] concerns NCI-H2030. Description: Cytotoxicity against human NCI-H2030 cells measured after 8 days. Type of experiment: functional, cell-based. The note with it: NCI-H2030, 192 h.
Experiment [23] in a line: Cytotoxicity against human NCE-G 22 cells measured after 3 days. Type of experiment: functional, cell-based. The note with it: NCE-G 22, 72 h.
The subject of experiment [24] is OVCAR-3. Description: Cytotoxicity against human OVCAR-3 cells measured after 3 days. Type of experiment: functional, cell-based. The conditions noted are these: OVCAR-3, 72 h.
Experiment [25] is described as follows: Cytotoxicity against human MT-3 cells measured after 3 days. Type of experiment: functional, cell-based. The conditions noted are these: MT-3, 72 h.
The subject of experiment [26] is JIYOYE. Briefly: Cytotoxicity against human JIYOYE cells measured after 3 days. Type of experiment: functional, cell-based. The conditions noted are these: 72 h.
The nature of experiment [27]: Cytotoxicity against human SUM52PE cells measured after 3 days. Type of experiment: functional, cell-based. The conditions noted are these: 72 h.
Experiment [28] is described as follows: Cytotoxicity against human LUDLU-1 cells measured after 3 days. Type of experiment: functional, cell-based. The conditions noted are these: LUDLU-1, 72 h.
Experiment [29] in a line: Cytotoxicity against human Karpas-620 cells measured after 3 days. The note with it: Karpas-620, 72 h. Type of experiment: functional, cell-based.
The subject of experiment [30] is ES-2. Description: Cytotoxicity against human ES2 cells measured after 3 days. Type of experiment: functional, cell-based. The note with it: ES-2, 72 h.
Experiment [31] deals with JeKo-1. Description: Cytotoxicity against human JeKo-1 cells measured after 3 days. The note with it: JeKo-1, 72 h. Type of experiment: functional, cell-based.
Experiment [32] concerns SNU-475. Briefly: Cytotoxicity against human SNU-475 cells measured after 3 days. Type of experiment: functional, cell-based. The note with it: SNU-475, 72 h.
In experiment [33] the test system is SU-DHL10. Description: Cytotoxicity against human SU-DHL-10 cells measured after 3 days. Type of experiment: functional, cell-based. The conditions noted are these: SU-DHL10, 72 h.
For experiment [34], the system named is EJM. Description: Cytotoxicity against human EJM cells measured after 3 days. Type of experiment: functional, cell-based. The conditions noted are these: 72 h.
A short description of experiment [35]: Cytotoxicity against human KMM-1 cells measured after 3 days. Type of experiment: functional, cell-based. The conditions noted are these: KMM-1, 72 h.
The test system of experiment [36] is MDA-MB-231. Description: Antiproliferative activity against human MDA-MB-231 cells assessed as reduction in colony formation upto 20 uM supplemented with fresh medium containing compound every 3 days for 9 days by MTT staining based clonogenic assay. Type of experiment: functional, cell-based. The note with it: time 9.0 day.
The test system of experiment [37] is A549. Briefly: Antiproliferative activity against human A549 cells assessed as reduction in colony formation up to 20 uM supplemented with fresh medium containing compound every 3 days for 9 days by MTT staining based clonogenic assay. Type of experiment: functional, cell-based. The conditions noted are these: time 9.0 day.
Experiment [38] relates to A2058. Briefly: Antiproliferative activity against human A2058 cells assessed as reduction in colony formation upto 20 uM supplemented with fresh medium containing compound every 3 days for 9 days by MTT staining based clonogenic assay. Type of experiment: functional, cell-based. The note with it: time 9.0 day.
Experiment [39] relates to MIA PaCa-2. Description: Antiproliferative activity against human MIA PaCa-2 cells assessed as reduction in colony formation up to 20 uM supplemented with fresh medium containing compound every 3 days for 9 days by MTT staining based clonogenic assay. Type of experiment: functional, cell-based. The note with it: time 9.0 day.
Experiment [40] has as its system PC-9. Description: Antiproliferative activity against human PC-9 cells assessed as reduction in colony formation upto 20 uM supplemented with fresh medium containing compound every 3 days for 9 days by MTT staining based clonogenic assay. Type of experiment: functional, cell-based. The note with it: time 9.0 day.
Experiment [41] concerns PANC-1. Description: Antiproliferative activity against human PANC-1 cells assessed as reduction in colony formation up to 20 uM supplemented with fresh medium containing compound every 3 days for 9 days by MTT staining based clonogenic assay. Type of experiment: functional, cell-based. The conditions noted are these: time 9.0 day.
Experiment [42] has as its system NCI-H460. Description: Antiproliferative activity against human NCI-H460 cells assessed as reduction in colony formation up to 20 uM supplemented with fresh medium containing compound every 3 days for 9 days by MTT staining based clonogenic assay. Type of experiment: functional, cell-based. The conditions noted are these: time 9.0 day.
The target in experiment [43] is T1, Bromodomain-containing protein 9 (Homo sapiens) (UniProt Q9H8M2).
T1 sequence (whole entry): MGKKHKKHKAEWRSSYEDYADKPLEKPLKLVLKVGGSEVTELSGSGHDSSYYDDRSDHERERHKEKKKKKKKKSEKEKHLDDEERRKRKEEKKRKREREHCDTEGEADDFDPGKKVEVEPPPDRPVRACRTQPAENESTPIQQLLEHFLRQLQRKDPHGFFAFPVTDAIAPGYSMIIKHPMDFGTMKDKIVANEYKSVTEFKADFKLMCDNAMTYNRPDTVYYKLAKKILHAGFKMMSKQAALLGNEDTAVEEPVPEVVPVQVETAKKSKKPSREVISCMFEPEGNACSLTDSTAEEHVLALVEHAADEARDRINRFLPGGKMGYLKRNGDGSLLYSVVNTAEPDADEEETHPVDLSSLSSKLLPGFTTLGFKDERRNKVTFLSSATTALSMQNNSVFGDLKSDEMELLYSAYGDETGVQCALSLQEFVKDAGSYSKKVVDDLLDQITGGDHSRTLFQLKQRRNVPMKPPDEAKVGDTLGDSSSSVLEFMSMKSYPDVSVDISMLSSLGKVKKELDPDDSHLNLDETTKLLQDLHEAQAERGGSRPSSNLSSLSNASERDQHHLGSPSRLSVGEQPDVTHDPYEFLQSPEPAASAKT
Briefly: Inhibition of BRD9 in human PC-9 cells assessed as reduction in ALDH1A1 gene expression at 2 uM preincubated with erlotinib for 8 days followed by compound addition and measured after 24 hrs by RNA sequencing analysis. Type of experiment: cell-based.

SMILES strings stand for the structures. The source made the active and inactive calls. The rule behind the calls is not given here.

Take `C/C=C/Cn1cc(-c2cc(OC)c(C(=O)N3CCOCC3)cc2OC)c2cc(C)[nH]c2c1=O`: the concentration for half-maximal inhibition (IC50) was found to be 5 µM in experiment [1]; 5 µM in experiment [2]; 5 µM in experiment [3]; 2 µM in experiment [4]; 5 µM in experiment [5]; 5 µM in experiment [6]. The IC50 in [7] stood at 5 µM; in experiment [8], 5 µM; in experiment [9], 2 µM; in [10] it was 2 µM; in experiment [11], 5 µM; in experiment [12] it was 5 µM. Further, the IC50 stood at 5 µM in [13]; 5 µM in experiment [14]; 5 µM in experiment [15]; 2 µM in [16]; 5 µM in [17]; 5 µM in experiment [18]. The IC50 turned out to be 5 µM in experiment [19]; 5 µM in experiment [20]; 5 µM in experiment [21]; 2 µM in [22]; 5 µM in [23]; 5 µM in experiment [24]. Also, the IC50 in experiment [25], in experiment [26], in experiment [27], in [28], in experiment [29] and in experiment [30] was 5 µM each time. Besides, the IC50 in experiment [31], in [32], in experiment [33], in [34] and in experiment [35] was 5 µM in each case.
In the case of `C/C=C/Cn1cc(-c2ccc(C(C)(C)O)cc2OC)c2cc[nH]c2c1=O`, the result in experiment [36], in [37], in [38], in experiment [39], in experiment [41] and in experiment [42] was inactive. The result in experiment [40] was Active.
On to `C/C=C/Cn1cc(-c2ccc(C(=O)N3CCOCC3)cc2)c2cc[nH]c2c1=O`, for which, in [43], the inhibition result is “Active”.

The values above are taken from ChEMBL document CHEMBL5260810, “Inhibition of bromodomain-containing protein 9 for the prevention of epigenetically-defined drug resistance” (Bioorg Med Chem Lett, 2017).
